Experimental data: PubChem BioAssay AID1918957 (Molecular Pharmacology Branch, DTP, NCI, 2023)

Test system: NCI-H1876 complex spheroid viability
Experiment: Anticancer human tumor NCI-H1876 cell line growth inhibition [LSD1];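 further: spheroids exposed to compounds for one week before readout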;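 on viability, T/C: 100% = DMSO vehicle-treated spheroids so lower means fewer viable cells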
Details: for IC50: curve of first compound; for viability, T/C: stronger effect = lower value
Method in brief: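 Drug combinations with the LSD1 inhibitor iadademstat tested on tumor cells co-cultured as spheroids with endothelial cells and mesenchymal stem cells. Concentrations descended in half-log increments from clinical Cmax or 10 microM.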

[1] = second compound 0.1 µM, first compound 0.00949 µM
[2] = second compound 0.1 µM, first compound 0.03 µM
[3] = second compound 0.1 µM, first compound 0.0949 µM
[4] = second compound 0.1 µM, first compound 0.3 µM
[5] = second compound 0.1 µM, first compound 0.949 µM
[6] = second compound 0.1 µM, first compound 3 µM
[7] = second compound 0.316 µM, first compound 0.00949 µM
[8] = second compound 0.316 µM, first compound 0.03 µM
[9] = second compound 0.316 µM, first compound 0.0949 µM
[10] = second compound 0.316 µM, first compound 0.3 µM
[11] = second compound 0.316 µM, first compound 0.949 µM
[12] = second compound 0.316 µM, first compound 3 µM
[13] = second compound 1 µM, first compound 0.00949 µM
[14] = second compound 1 µM, first compound 0.03 µM
[15] = second compound 1 µM, first compound 0.0949 µM
[16] = second compound 1 µM, first compound 0.3 µM
[17] = second compound 1 µM, first compound 0.949 µM
[18] = second compound 1 µM, first compound 3 µM
[19] = second compound 3.16 µM, first compound 0.00949 µM
[20] = second compound 3.16 µM, first compound 0.03 µM
[21] = second compound 3.16 µM, first compound 0.0949 µM
[22] = second compound 3.16 µM, first compound 0.3 µM
[23] = second compound 3.16 µM, first compound 0.949 µM
[24] = second compound 3.16 µM, first compound 3 µM
[25] = second compound 10 µM, first compound 0.00949 µM
[26] = second compound 10 µM, first compound 0.03 µM
[27] = second compound 10 µM, first compound 0.0949 µM
[28] = second compound 10 µM, first compound 0.3 µM
[29] = second compound 10 µM, first compound 0.949 µM
[30] = second compound 10 µM, first compound 3 µM

| SMILES | IC50 (second compound 0.1 µM) [nM] | IC50 (second compound 0.316 µM) [nM] | IC50 (second compound 1 µM) [nM] | IC50 (second compound 3.16 µM) [nM] | IC50 (second compound 10 µM) [nM] | viability, T/C [1] [%] | viability, T/C [2] [%] | viability, T/C [3] [%] | viability, T/C [4] [%] | viability, T/C [5] [%] | viability, T/C [6] [%] | viability, T/C [7] [%] | viability, T/C [8] [%] | viability, T/C [9] [%] | viability, T/C [10] [%] | viability, T/C [11] [%] | viability, T/C [12] [%] | viability, T/C [13] [%] | viability, T/C [14] [%] | viability, T/C [15] [%] | other results |
| --- | --- | --- | --- | --- | --- | --- | --- | --- | --- | --- | --- | --- | --- | --- | --- | --- | --- | --- | --- | --- | --- |
| NS(=O)(=O)OCC1CC(n2ccc3c(NC4CCc5ccccc54)ncnc32)CC1O (stereo not given) + NC1CCC(NC2CC2c2ccccc2)CC1 | 101 | 78 | 71.8 | 68.9 | 83 | 78.2 | 60.1 | 56.1 | 36.6 | 36.1 | 31.7 | 75.3 | 60.5 | 47.2 | 39.4 | 37.9 | 31.4 | 83.5 | 62.3 | 46.8 | viability, T/C [16]: 35.1%; viability, T/C [17]: 34.2%; viability, T/C [18]: 30.1%; viability, T/C [19]: 70.9%; viability, T/C [20]: 57.9%; viability, T/C [21]: 48.4%; viability, T/C [22]: 35.9%; viability, T/C [23]: 33.6%; viability, T/C [24]: 28.8%; viability, T/C [25]: 77.3%; viability, T/C [26]: 63%; viability, T/C [27]: 47.6%; viability, T/C [28]: 37%; viability, T/C [29]: 32.3%; viability, T/C [30]: 24.4% |
| O=C(C=Cc1cccc(S(=O)(=O)Nc2ccccc2)c1)NO + NC1CCC(NC2CC2c2ccccc2)CC1 | 196 | 193 | 179 | 193 | 158 | 109 | 103 | 89.3 | 27 | 12.8 | 10.9 | 103 | 101 | 87 | 27.1 | 13.9 | 19.6 | 103 | 105 | 77.3 | viability, T/C [16]: 27.3%; viability, T/C [17]: 6.13%; viability, T/C [18]: 0.61%; viability, T/C [19]: 101%; viability, T/C [20]: 106%; viability, T/C [21]: 82.2%; viability, T/C [22]: 29.8%; viability, T/C [23]: 4.78%; viability, T/C [24]: 0.3%; viability, T/C [25]: 105%; viability, T/C [26]: 99.3%; viability, T/C [27]: 69.8%; viability, T/C [28]: 26.6%; viability, T/C [29]: 3.06%; viability, T/C [30]: 19.4% |
